{"source": "patent EP2177604A1", "about": "“Methods for identifying potential CYP4 metabolites, inhibitors or prodrugs” (PomBio Tech GmbH, priority 2008, dated 2010)", "target": "T1, human CYP4Z1 (Homo sapiens, UniProt Q86W10)", "T1 sequence (Q86W10 1-505)": "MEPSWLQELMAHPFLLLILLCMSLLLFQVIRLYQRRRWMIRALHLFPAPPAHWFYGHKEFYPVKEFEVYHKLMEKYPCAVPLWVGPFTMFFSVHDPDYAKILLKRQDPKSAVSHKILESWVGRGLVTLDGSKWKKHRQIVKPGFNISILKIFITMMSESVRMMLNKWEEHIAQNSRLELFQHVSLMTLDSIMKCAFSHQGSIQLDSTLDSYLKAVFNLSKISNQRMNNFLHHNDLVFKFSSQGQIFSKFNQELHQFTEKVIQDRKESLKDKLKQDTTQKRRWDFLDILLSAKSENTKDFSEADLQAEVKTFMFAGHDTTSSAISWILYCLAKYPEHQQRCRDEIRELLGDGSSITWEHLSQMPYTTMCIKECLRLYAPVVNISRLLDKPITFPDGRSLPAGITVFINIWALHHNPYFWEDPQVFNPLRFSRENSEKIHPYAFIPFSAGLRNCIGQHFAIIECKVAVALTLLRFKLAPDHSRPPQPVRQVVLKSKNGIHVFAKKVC", "assay": "whole-cell biotransformation (substrate conversion) assay with fission yeast strains expressing CYP4Z1", "conditions": "for metabolite formation / metabolism by human CYP4Z1: fission yeast strains AZ1 and AZ3, 1 mM substrate, 24 h at 30°C, HPLC (steroids, vitamin D, ebastine) or GC-MS (fatty acids)", "protocol": "Possible substrates of human CYP4Z1 were tested by incubating the fission yeast strains AZ1 and AZ3 as well as the control strains NCYC2036 and CAD 62 with 1 mM substrate. […] Approximately 2*10^8 cells/mL were used per assay. Cells were grown in EMM medium containing 100 g/L glucose as well as the required supplements (leucine for AZ1 and CAD 62). Incubation was carried out either in 96 well microtiter plates or in 250 mL Erlenmeyer flasks with a cellulose stopper at a shaking velocity of 150 rpm for 24 h at 30°C.\nSamples containing steroids as possible substrates were extracted with ethylacetate, evaporated and analyzed via HPLC (Alliance, Waters, USA) using a RP-18 column (Licrosphere 100, 5µM, Merck, Darmstadt) or a RP-8 column (Licrosphere 100, 5µM, Merck, Darmstadt). The column temperature was kept constant at 40°C. The mobile phase used for each sample is outlined in Suppl. Table. 1. When available, positive control reactions were carried out using strains expressing a P450 that is known to metabolize the respective substrate.\nFatty acid conversions were analyzed via GC-MS as previously described. Fatty acid extraction from S.pombe cells was performed using the Bligh and Dyer method.. Extracted samples were then evaporated to dryness, dissolved in a mixture of 500 µl methanol/toluene/sulphuric acid (50:50:2 V/V) and incubated at 55 °C overnight. 400µl of a 0.5 M […], 2 M KCl solution were added to the samples which were then centrifuged at RT, transferred to a GC vial and derivatised with 25 µl N-Methyl-N-(trimethylsilyl)trifluoroacetamide (37 °C for 1 hour). Fatty acid analysis was performed on an Agilent 6890N gas chromatograph coupled to an Agilent 5973N mass selective detector and equipped with a non-polar J&W DB-5HT capillary column, as described before.", "note": "Read-outs that look alike come from different tables or passages of the source."}
{"molecule": "CCCCCCCCCCCC(=O)O", "note": "[lauric acid]", "values": [{"measurement": "main hydroxylation position (MS fragmentation analysis)", "result": "predominantly ω-4-hydroxylated"}, {"measurement": "other hydroxylated fatty acids detected besides the main product", "result": "ω-2-, ω-3-, ω-5-hydroxylated"}]}
{"molecule": "CCCCCCCCCCCCCC(=O)O", "note": "[myristic acid]", "values": [{"measurement": "main hydroxylation position (MS fragmentation analysis)", "setting": "CYP4Z1 whole-cell biotransformation, GC-MS, main product", "result": "mainly hydroxylated at position ω-2"}, {"measurement": "other hydroxylated fatty acids detected besides the main product", "setting": "CYP4Z1 whole-cell biotransformation, GC-MS, minor products", "result": "ω-3-, ω-4-, ω-5-hydroxlated"}, {"measurement": "metabolite formation / metabolism by human CYP4Z1", "result": "able to hydroxylate"}]}
{"molecule": "C=C1CC[C@H](O)C/C1=C/C=C1\\CCC[C@]2(C)[C@@H]([C@H](C)CCCC(C)C)CC[C@@H]12", "note": "[vitamin D3]", "values": [{"measurement": "metabolite formation / metabolism by human CYP4Z1", "result": "not metabolized"}]}
